Assay results taken from the OPERA property sets (Mansouri et al. 2018).
In brackets after ≈: the same amount, converted by molar mass. Where a SMILES comes first, the peptide text is derived from it.

Conditions: not given

Structure (SMILES)	logP	solubility [mM]
CCNc1ncc(-c2ccncc2)cc1C#N	2.33	
Cc1ccc(C=C(C#N)C#N)o1	2.03	
COc1nc(C)nc(NC(=O)NS(=O)(=O)c2ccccc2Cl)n1	2	
ClC1(Cl)C2(Cl)C3(Cl)C4(Cl)C(Cl)(Cl)C5(Cl)C3(Cl)C1(Cl)C5(Cl)C24Cl (stereo not given)	6.89	
COc1ccc(C(OC(C)=O)C(Cl)(Cl)Cl)cc1 (stereo not given)	3.72	
Nc1ccc2c(c1)Cc1cc([N+](=O)[O-])ccc1-2	3.06	
CC(=O)OC1CCC(C(C)(C)C)CC1 (stereo not given)	4.8	
CC(C)(C)C(=O)OCn1ncc2c(O)ncnc21	1.07	
COP(=S)(OC)Oc1c(Cl)cccc1C#N	3.58	
OCc1cc(Cl)cc(Cl)c1	2.9	
CCCN(CC1CC1)c1c([N+](=O)[O-])cc(C(F)(F)F)cc1[N+](=O)[O-]	5.58	
Brc1cccc(Oc2ccc(Br)c(Br)c2Br)c1	6.05	
COc1c2ccoc2cc2oc(=O)ccc12	1.93	
N#CCCN(N)c1nc2ccccc2o1	0.9	
CCCCOC(=O)c1ccccc1C(=O)OCc1ccccc1	4.73	
COP(=S)(OC)Oc1ccc(C#N)cc1	2.71	
CC(C)NCC(O)c1ccc(NS(C)(=O)=O)cc1 (stereo not given)	0.24	
CCOC1OC2OC3(C)CCC4C(COC5OC(C(=O)O)C(O)C(O)C5O)CCC(C1C)C24OO3 (stereo not given)	1.05	
O=C(O)C(c1ccc(Cl)cc1)c1ccc(Cl)cc1	4.64	
CC(C)(O)C(=O)Nc1ccc([N+](=O)[O-])c(C(F)(F)F)c1	2.7	
O=CNc1nc(-c2ccc([N+](=O)[O-])o2)cs1	-1.14	

Structure (SMILES)	logP	solubility [mM]
CN(C)c1ccc(N=c2snc3sc(S(N)(=O)=O)nn23)cc1	2.32	
Cc1nc(NCCCO)c(C#N)cc1-c1ccccc1	2.72	
NC(Cc1ccc(O)c(O)c1)C(=O)OCCc1ccc(Cl)cc1 (stereo not given)	2.33	
CCn1ccc(=O)c(O)c1C	-0.31	
Cc1cc(Cl)ccc1OCC(=O)OCCCCCC(C)C	6.7	
C[Si]1(C)O[Si](C)(C)O[Si](C)(C)O[Si](C)(C)O1	6.74	
CCOC1OC2OC3(C)CCC4C(CO)CCC(C1C)C24OO3 (stereo not given)	2.08	
CCCN(C)N=O	0.56	
N=C(N)NN=C1C=CC(=NNC(N)=O)C=C1	1.56	
CCCN1CCOC2c3cccc(O)c3CCC21 (stereo not given)	2.22	
c1ccc2c(c1)ccc1nc3ccc4ccccc4c3cc12	5.63	
Cc1cccc2c1Cc1ccccc1-2	4.97	
S=C=Nc1ccc(Cl)cc1	3.91	
ClCc1ccc(Cl)cc1	3.18	
COC(=O)C(C)=CC1C(C(=O)OC)C1(C)C (stereo not given)	2.67	
CC(=O)N[C@H](C(=O)N[C@@H](C)C(N)=O)C(C)C (Ac-Val-Ala-NH2)	-1.14	
Nc1cc2ccccc2cc1N	1.54	
CCCC(CCC)=NNC(N)=Nc1ccccc1	2.33	
Cc1cc(Cl)c(Cc2cc(Cl)ccc2Cl)cc1Cl	7.48	
COC1=CC(=O)C=C(OC)C1=O	-0.06	
CN(C)CCCN1c2ccccc2S(=O)c2ccc(Cl)cc21 (stereo not given)	2.32	

Continued, values first:

logP	solubility [mM]	Structure (SMILES)
2.23		Cc1ccccc1OCCN(C)C
1.6		COc1ccc([N+](=O)[O-])cc1NC(C)=O
2.17		COc1ccc(CNC(=O)C(=O)c2c[nH]c3ccc([N+](=O)[O-])cc23)cc1
2.03		Cc1c(CNc2ccc(Cl)cc2)cnc2nc(N)nc(N)c12
2.29		O=[N+]([O-])c1c(Cl)ncnc1Cl
4.5		CCCCCCCOC(=O)c1ccc(N)cc1
3.2		CC(C)(C)[C@@H](O)[C@@H](Cc1ccc(Cl)cc1)n1cncn1 (single isomer, unassigned)
1.18		CCCCn1cccc(O)c1=O
	18.2 (≈ 2500 µg/mL)	C=CCN(CC=C)CC=C
0.33		NC(=O)CC[C@H](NS(=O)(=O)c1ccccc1)C(=O)O
4.43		O=C(O)c1cccnc1Nc1cccc(C(F)(F)F)c1
5.35	0.000278 (≈ 0.0644 µg/mL)	Clc1cc(Cl)c2cc(Cl)ccc2c1
4.61		COC(=O)C1=C(C)NC(C)=C(C(=O)O[C@@H]2CCCN(Cc3ccccc3)C2)[C@@H]1c1cccc([N+](=O)[O-])c1
5.58		OCCC(F)(F)C(F)(F)C(F)(F)C(F)(F)C(F)(F)C(F)(F)C(F)(F)C(F)(F)F
3.35		CC(C)C(=O)Nc1ccc([N+](=O)[O-])c(C(F)(F)F)c1
1.28		COCc1ccc(COC)cc1
5.43		O=C(O)c1ccccc1Nc1cccc(Cl)c1
0.6		Clc1ccc(O[Si]23OCCN(CCO2)CCO3)cc1
1.12		CS/C(C)=N/O
5.37		CCCCCCCc1ccccc1
1.46		CC(=O)c1cccc(NCc2cnc3nc(N)nc(N)c3c2C)c1
4.3	0.00646 (≈ 1.9 µg/mL)	CC(=O)c1c(C)c([N+](=O)[O-])c(C(C)(C)C)c([N+](=O)[O-])c1C
3.63		Cc1cc(OCCN(C)C)c(C(C)C)cc1OC1CCCCC1=O (stereo not given)

logP	solubility [mM]	Structure (SMILES)
6.8		Cc1c(Cl)c(Cl)c(C(C)C)c(Cl)c1Cl
4.66		CCCCCCC
3.76		C=CCOc1ccccc1OCC(CNC(C)C)OC(=O)CC (stereo not given)
2.8		CCC(=O)OCN1C(=O)NC(c2ccccc2)(c2ccccc2)C1=O
3.29		CCOC(C(=O)OCc1ccccc1)C(C)C (stereo not given)
4.94		COc1ccc(Nc2ccnc3cc(Cl)ccc23)cc1
3.57		Clc1ccc2c(Cl)ccnc2c1
0.65		CN(CCN)S(=O)(=O)c1ccc(C(C)(C)[N+](=O)[O-])c([N+](=O)[O-])c1
1.62		CN(C)C(=O)n1nc(C(C)(C)C)nc1SCC(=O)O
7.92		CCN(CC)CCCC(C)N=c1cc2n(-c3ccc(Cl)cc3)c3ccccc3nc-2cc1Nc1ccc(Cl)cc1 (stereo not given)
6.19		Clc1cc(Cl)c2cc(Cl)cc(Cl)c2c1
5.18		CCCCCCCC
0.72		CCOC(=O)[C@@H](N)Cc1ccc(O)cc1
1.72		N#CCCN(N)c1nc2cc(Cl)ccc2o1
1.66		CC1=CC(=NNC(=N)N)C=CC1=NNC(N)=S
1.76		N[C@@H](Cc1ccc(O)c(O)c1)C(=O)OCCc1ccccc1
0.34		CCn1cc(C(=O)O)c(=O)c2cc(F)c(N3CCNC(C)C3)cc21 (stereo not given)
3.05		CCCCc1ccc(N)cc1
2.63		CCC/N=C(N)/N=C(\N)Nc1ccc(Cl)cc1
-2.2	2510 (≈ 700000 µg/mL)	CCc1c(C(=O)O)c(=O)cnn1-c1ccc(Cl)cc1
0.02		CCCNC(=O)CCC(NS(=O)(=O)c1ccc(C)cc1)C(=O)O (stereo not given)
0.48		O=C(O)CCCCn1nnc2ccccc21

Same assay, conditions: 20 °C

Structure (SMILES)	solubility [mM]
N#Cc1cccnc1	1300 (≈ 135000 µg/mL)
CC(O)CN(CC(C)O)CC(C)O (stereo not given)	4340 (≈ 830000 µg/mL)
CCOC(C)(C)CC	3.44 (≈ 400 µg/mL)
N=C(N)N	31.1 (≈ 1840 µg/mL)
CCOS(=O)(=O)OCC	45.4 (≈ 7000 µg/mL)
CS(=O)(=O)F	306 (≈ 30000 µg/mL)
CCc1cccc(C)c1N(C(=O)CCl)C(C)COC (stereo not given)	1.87 (≈ 530 µg/mL)

Same assay, conditions: 23 °C

solubility [mM]	Structure (SMILES)
14.4 (≈ 2730 µg/mL)	NC(=O)c1c(Cl)cccc1Cl

Same assay, conditions: 23.0 °C

log10 OH rate constant (cm³/molecule/s)	Structure (SMILES)
-10.6	c1ccc2c(c1)OCCO2

Same assay, conditions: 24 °C

solubility [mM]	Structure (SMILES)
0.524 (≈ 125 µg/mL)	N#CSCSc1nc2ccccc2s1
1.33 (≈ 249 µg/mL)	COc1cc(C=O)cc(Cl)c1O

Structure (SMILES)	solubility [mM]
CC1CN(N=O)CC(C)O1 (stereo not given)	860 (≈ 124000 µg/mL)

Same assay, conditions: 24.0 °C

log10 OH rate constant (cm³/molecule/s)	Structure (SMILES)
-12.3	C[Si]1(C)O[Si](C)(C)O[Si](C)(C)O1
-12	C[Si]1(C)O[Si](C)(C)O[Si](C)(C)O[Si](C)(C)O1
-11.1	c1ccc2cnccc2c1

Same assay, conditions: 25 °C

Structure (SMILES)	solubility [mM]
Cc1c2ccccc2c(C)c2c1ccc1ccccc12	0.000152 (≈ 0.039 µg/mL)
Nc1ccc(Cl)cc1	30.6 (≈ 3900 µg/mL)
CCCCOC(=O)c1ccccc1C(=O)OCc1ccccc1	0.00861 (≈ 2.69 µg/mL)
Oc1nc(O)nc(O)n1	15.5 (≈ 2000 µg/mL)
CCCCC(CC)COP(=O)(Oc1ccccc1)Oc1ccccc1 (stereo not given)	0.00524 (≈ 1.9 µg/mL)
CCOP(=O)(N=C1SCCS1)OCC	2.55 (≈ 650 µg/mL)
CCC1CO1 (stereo not given)	1040 (≈ 75000 µg/mL)
O=P(Oc1ccccc1)(Oc1ccccc1)Oc1ccccc1	0.00582 (≈ 1.9 µg/mL)
Clc1cc(Cl)c(Cl)cc1Cl	0.00276 (≈ 0.595 µg/mL)
O=C([O-])CF.[Na+]	11100
Clc1ccc(-c2ccccc2Cl)cc1	0.00524 (≈ 1.17 µg/mL)
CCN(N=O)C(N)=O	111 (≈ 13000 µg/mL)
O=NN(c1ccccc1)c1ccccc1	0.177 (≈ 35 µg/mL)
CCCCOC(=O)c1ccc(C(=O)OCCCC)cc1	0.00341 (≈ 0.95 µg/mL)
Oc1ccccc1Cl	87.9 (≈ 11300 µg/mL)
CCCCC(C)CCC (stereo not given)	0.000897 (≈ 0.115 µg/mL)
CCCCN(CC)C(=O)SCCC	0.492 (≈ 100 µg/mL)
CCCCCCCCCCCCN	0.421 (≈ 78 µg/mL)
Cc1cccc(Oc2ccc([N+](=O)[O-])cc2)c1	0.0218 (≈ 5 µg/mL)
CCCCOP(=O)(OCCCC)Oc1ccccc1	0.335 (≈ 96 µg/mL)

Results, then the compound that gave them:

solubility [mM]	Structure (SMILES)
0.753 (≈ 89 µg/mL)	C=Cc1cccc(C)c1
0.0427 (≈ 17.2 µg/mL)	CC(=O)OCC(=O)[C@@]1(O)CC[C@H]2[C@@H]3CCC4=CC(=O)C=C[C@]4(C)[C@H]3[C@@H](O)C[C@@]21C
0.331 (≈ 59 µg/mL)	CCCCOC(=O)c1ccccc1
1.88e-07 (≈ 0.000103 µg/mL)	Brc1ccc(Br)c(-c2cc(Br)c(Br)cc2Br)c1
0.174 (≈ 23.3 µg/mL)	Cc1ccccc1C(C)C
5.37 (≈ 828 µg/mL)	CC1(C)[C@H]2CC[C@](C)(C2)[C@H]1O
9.38 (≈ 1280 µg/mL)	CCCc1ccc(O)cc1
3.12 (≈ 400 µg/mL)	CCCCC(C=O)CC (stereo not given)
5.27 (≈ 659 µg/mL)	ClC/C=C/CCl

Same assay, conditions: 25.0 °C

Structure (SMILES)	log10 OH rate constant (cm³/molecule/s)
CC(C)(C)N	-10.9
O=CCCl	-11.5
FC(F)OC(Cl)C(F)(F)F (stereo not given)	-13.8
CCOS(=O)(=O)OCC	-11.7
ClC(Cl)C(Cl)Cl	-12.6
CCCCl	-12
CSC(=O)N(C)C	-10.9
OCCOCCO	-10.5

The next lines start with the values.

log10 OH rate constant (cm³/molecule/s)	Structure (SMILES)
-12.2	O=CC(F)(F)F
-12.6	CC(Br)Br
-11	CC12CCC(CC1)C(C)(C)O2
-13.8	FC(Br)C(F)(F)F (stereo not given)
-9.81	c1ccc2[nH]ccc2c1
-14.8	FC(C(F)(F)F)C(F)(F)F

Same assay, conditions: 26 °C

Structure (SMILES)	solubility [mM]
Clc1cc2oc3cc(Cl)c(Cl)cc3c2cc1Cl	2.26e-06 (≈ 0.000692 µg/mL)
CCNc1nc(O)nc(NC(C)C)n1	0.0299 (≈ 5.9 µg/mL)

Same assay, conditions: 27 °C

Structure (SMILES)	solubility [mM]
NCCc1c[nH]c2ccc(O)cc12	114 (≈ 20000 µg/mL)
Cc1c2ccccc2cc2ccc3ccccc3c12	0.000272 (≈ 0.066 µg/mL)

Same assay, conditions: 27.0 °C

log10 OH rate constant (cm³/molecule/s)	Structure (SMILES)
-11.3	CNC(C)=O
-9.97	CCc1ccco1

Same assay, conditions: 30 °C

solubility [mM]	Structure (SMILES)
1.67 (≈ 340 µg/mL)	Ic1ccccc1
